Results as given in patent US9833497B2, “Human originated EGF domain proteins and use of the same” (CHENGDU SOURCEBIO LIMITED-LIABILITY COMPANY, priority 2013, dated 2017).

Legend:
Type in all cases: cell-based
E. coli DH5α = assay: Antibacterial activity: MIC and growth curve against E. coli DH5α in 96-well plate; details: minimal inhibitory concentration against E. coli DH5α; 96-well plate, 5×10^5 CFU/mL, 37° C., judged after 8 h
In short: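 MIC taken as lowest protein level with no bacterial growth, tracked by A600 every 30 min during 37 °C, 175 rpm culture. Two-fold protein series 50-12.5 μg/mL final, triplicate wells, against 5×10^5 CFU/mL of LB-washed mid-log cells.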

E. coli BL21 = assay: MIC against Gram-negative bacteria: E. coli BL21; details: 5×10^5 CFU/mL
In short: (§1)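 Antibacterial activity of purified human EGF domain proteins: two-fold concentration series, triplicate wells, LB broth, 5×10^5 CFU/mL bacteria, 37° C shaking incubation. The lowest concentration without growth defines the MIC.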

Pseudomonas aeruginosa = assay: MIC against Gram-negative bacteria: Pseudomonas aeruginosa; details: 5×10^5 CFU/mL
In short: as §1

Klebsiella pneumonia = assay: MIC against Gram-negative bacteria: Klebsiella pneumonia; details: 5×10^5 CFU/mL
In short: as §1

Enterobacter cloacae = assay: MIC against Gram-negative bacteria: Enterobacter cloacae; details: 5×10^5 CFU/mL
In short: as §1

Aeromonas hydrophila = assay: MIC against Gram-negative bacteria: Aeromonas hydrophila; details: 5×10^5 CFU/mL
In short: as §1

Citrobacter diversus = assay: MIC against Gram-negative bacteria: Citrobacter diversus; details: 5×10^5 CFU/mL
In short: as §1

Moraxella catarrhalis = assay: MIC against Gram-negative bacteria: Moraxella catarrhalis; details: 5×10^5 CFU/mL
In short: as §1

Proteus mirabilis = assay: MIC against Gram-negative bacteria: Proteus mirabilis; details: 5×10^5 CFU/mL
In short: as §1

Proteus vulgaris = assay: MIC against Gram-negative bacteria: Proteus vulgaris; details: 5×10^5 CFU/mL
In short: as §1

Serratia marcescens = assay: MIC against Gram-negative bacteria: Serratia marcescens; details: 5×10^5 CFU/mL
In short: as §1

[1] = E. coli BL21, 10 h cultivation at 37° C.
[2] = 10 h cultivation at 37° C., two-fold serial dilution

## PRT764 (AQDKCALGTHGCQHICVNDRTGSHHCECYEGYTLNADKKTCS; listed as Homo sapiens)
E. coli DH5α
  MIC: 12.5 µg/mL
E. coli BL21; [1]
  MIC (μg/mL) E. coli BL21: 25 µg/mL
Pseudomonas aeruginosa; P. aeruginosa, 10 h cultivation at 37° C.
  MIC (μg/mL) P. aeruginosa: 50 µg/mL
Klebsiella pneumonia; K. pneumonia, 10 h cultivation at 37° C.
  MIC (μg/mL) K. pneumonia: 100 µg/mL
Enterobacter cloacae; E. cloacae, 10 h cultivation at 37° C.
  MIC (μg/mL) E. cloacae: 50 µg/mL
Aeromonas hydrophila; A. hydrophila, 10 h cultivation at 37° C.
  MIC (μg/mL) A. hydrophila: 12.5 µg/mL
Citrobacter diversus; C. diversus, 10 h cultivation at 37° C.
  MIC (μg/mL) C. diversus: 50 µg/mL
Moraxella catarrhalis; M. catarrhalis, 10 h cultivation at 37° C.
  MIC (μg/mL) M. catarrhalis: 12.5 µg/mL
Proteus mirabilis; P. mirabilis, 10 h cultivation at 37° C.
  MIC (μg/mL) P. mirabilis: 25 µg/mL
Proteus vulgaris; P. vulgaris, 10 h cultivation at 37° C.
  MIC (μg/mL) P. vulgaris: 25 µg/mL
Serratia marcescens; S. marcescens, 10 h cultivation at 37° C.
  MIC (μg/mL) S. marcescens: 50 µg/mL

## PRT457 (DVDECLQGRCEQVCVNSPGSYTCHCDGRGGLKLSQDMDTCE; listed as Homo sapiens)
E. coli DH5α
  MIC: 50 µg/mL
E. coli BL21; 96-well plate, 37° C., 10 h
  MIC against E. coli BL21: 25 µg/mL
Pseudomonas aeruginosa; 96-well plate, 37° C., 10 h
  MIC against P. aeruginosa: 12.5 µg/mL
Klebsiella pneumonia; 96-well plate, 37° C., 10 h
  MIC against K. pneumonia: 50 µg/mL
Enterobacter cloacae; 96-well plate, 37° C., 10 h
  MIC against E. cloacae: 25 µg/mL
Aeromonas hydrophila; 96-well plate, 37° C., 10 h
  MIC against A. hydrophila: 12.5 µg/mL
Citrobacter diversus; 96-well plate, 37° C., 10 h
  MIC against C. diversus: 25 µg/mL
Moraxella catarrhalis; 96-well plate, 37° C., 10 h
  MIC against M. catarrhalis: 50 µg/mL
Proteus mirabilis; 96-well plate, 37° C., 10 h
  MIC against P. mirabilis: 12.5 µg/mL
Proteus vulgaris; 96-well plate, 37° C., 10 h
  MIC against P. vulgaris: 50 µg/mL
Serratia marcescens; 96-well plate, 37° C., 10 h
  MIC against S. marcescens: 12.5 µg/mL

## PRT727 (EFDDCQIWGICDQKCESRPGRHLCHCEEGYILERGQYCK; listed as Homo sapiens)
E. coli DH5α
  MIC: 12.5 µg/mL
E. coli BL21; 96-well plate, 37° C., 10 h
  MIC E. coli BL21: 25 µg/mL
Pseudomonas aeruginosa; 96-well plate, 37° C., 10 h
  MIC P. aeruginosa: 50 µg/mL
Klebsiella pneumonia; 96-well plate, 37° C., 10 h
  MIC K. pneumonia: 12.5 µg/mL
Enterobacter cloacae; 96-well plate, 37° C., 10 h
  MIC E. cloacae: 50 µg/mL
Aeromonas hydrophila; 96-well plate, 37° C., 10 h
  MIC A. hydrophila: 25 µg/mL
Citrobacter diversus; 96-well plate, 37° C., 10 h
  MIC C. diversus: 12.5 µg/mL
Moraxella catarrhalis; 96-well plate, 37° C., 10 h
  MIC M. catarrhalis: 25 µg/mL
Proteus mirabilis; 96-well plate, 37° C., 10 h
  MIC P. mirabilis: 50 µg/mL
Proteus vulgaris; 96-well plate, 37° C., 10 h
  MIC P. vulgaris: 12.5 µg/mL
Serratia marcescens; 96-well plate, 37° C., 10 h
  MIC S. marcescens: 50 µg/mL

## PRT1152 (HASPCSLMKCGNGGTCIESGTSVYCNCTTGWKGSFCT; listed as Homo sapiens)
E. coli DH5α
  MIC: 12.5 µg/mL
E. coli BL21; [2]
  MIC E. coli BL21: 25 µg/mL
Pseudomonas aeruginosa; [2]
  MIC P. aeruginosa: 12.5 µg/mL
Klebsiella pneumonia; [2]
  MIC K. pneumonia: 25 µg/mL
Enterobacter cloacae; [2]
  MIC E. cloacae: 12.5 µg/mL
Aeromonas hydrophila; [2]
  MIC A. hydrophila: 12.5 µg/mL
Citrobacter diversus; [2]
  MIC C. diversus: 12.5 µg/mL
Moraxella catarrhalis; [2]
  MIC M. catarrhalis: 12.5 µg/mL
Proteus mirabilis; [2]
  MIC P. mirabilis: 12.5 µg/mL
Proteus vulgaris; [2]
  MIC P. vulgaris: 25 µg/mL
Serratia marcescens; [2]
  MIC S. marcescens: 50 µg/mL

## PRT719 (CNNPCEQFNGGCSHICAPGPNGAECQCPHEGNWYLANNRKHCI; listed as Homo sapiens)
E. coli DH5α
  MIC: 50 µg/mL
E. coli BL21; 96-well plate, 37° C., 10 h
  MIC E. coli BL21: 12.5 µg/mL
Pseudomonas aeruginosa; 96-well plate, 37° C., 10 h
  MIC P. aeruginosa: 50 µg/mL
Klebsiella pneumonia; 96-well plate, 37° C., 10 h
  MIC K. pneumonia: 12.5 µg/mL
Enterobacter cloacae; 96-well plate, 37° C., 10 h
  MIC E. cloacae: 50 µg/mL
Aeromonas hydrophila; 96-well plate, 37° C., 10 h
  MIC A. hydrophila: 12.5 µg/mL
Citrobacter diversus; 96-well plate, 37° C., 10 h
  MIC C. diversus: 50 µg/mL
Moraxella catarrhalis; 96-well plate, 37° C., 10 h
  MIC M. catarrhalis: 50 µg/mL
Proteus mirabilis; 96-well plate, 37° C., 10 h
  MIC P. mirabilis: 50 µg/mL
Proteus vulgaris; 96-well plate, 37° C., 10 h
  MIC P. vulgaris: 50 µg/mL
Serratia marcescens; 96-well plate, 37° C., 10 h
  MIC S. marcescens: 50 µg/mL

## PRT1379 (GWPSCPGDCQGRGRCVQGVCVCRAGFSGPDC; listed as Homo sapiens)
E. coli DH5α
  MIC: 50 µg/mL
E. coli BL21; [1]
  MIC against E. coli BL21: 12.5 µg/mL
Pseudomonas aeruginosa; Pseudomonas aeruginosa, 10 h cultivation at 37° C.
  MIC against P. aeruginosa: 50 µg/mL
Klebsiella pneumonia; Klebsiella pneumonia, 10 h cultivation at 37° C.
  MIC against K. pneumonia: 12.5 µg/mL
Enterobacter cloacae; Enterobacter cloacae, 10 h cultivation at 37° C.
  MIC against E. cloacae: 50 µg/mL
Aeromonas hydrophila; Aeromonas hydrophila, 10 h cultivation at 37° C.
  MIC against A. hydrophila: 25 µg/mL
Citrobacter diversus; Citrobacter diversus, 10 h cultivation at 37° C.
  MIC against C. diversus: 12.5 µg/mL
Moraxella catarrhalis; Moraxella catarrhalis, 10 h cultivation at 37° C.
  MIC against M. catarrhalis: 25 µg/mL
Proteus mirabilis; Proteus mirabilis, 10 h cultivation at 37° C.
  MIC against P. mirabilis: 50 µg/mL
Proteus vulgaris; Proteus vulgaris, 10 h cultivation at 37° C.
  MIC against P. vulgaris: 25 µg/mL
Serratia marcescens; Serratia marcescens, 10 h cultivation at 37° C.
  MIC against S. marcescens: 12.5 µg/mL
